Results as given in ChEMBL document CHEMBL3997806, “Inhibition of veratridine-induced delayed inactivation of the voltage-sensitive sodium channel by synthetic analogs of crambescin B” (Bioorg Med Chem Lett, 2017).
The source made the active and inactive calls. The calls are words filed in the database; no cut-off is given here.

How the values were obtained:
[1] = molecular target: T1, Sodium channel protein type 2 subunit alpha (Homo sapiens, UniProt Q99250); test: Antagonist activity at human Nav1.2 expressed in HEK293T cells assessed as inhibition of VTD-induced sustained current by whole cell patch clamp method relative to control; type: cell-based, HEK-293T; settings: for inhibition: HEK-293T
[2] = molecular target: T1, Sodium channel protein type 2 subunit alpha; test: Antagonist activity at human Nav1.2 expressed in HEK293T cells assessed as inhibition of VTD-induced tail current by whole cell patch clamp method relative to control; type: cell-based, HEK-293T; settings: for inhibition: HEK-293T
[3] = molecular target: T1, Sodium channel protein type 2 subunit alpha; test: Inhibition of Nav1.2 (unknown origin) by cell based assay
Target sequence in this assay (Q99250 whole entry): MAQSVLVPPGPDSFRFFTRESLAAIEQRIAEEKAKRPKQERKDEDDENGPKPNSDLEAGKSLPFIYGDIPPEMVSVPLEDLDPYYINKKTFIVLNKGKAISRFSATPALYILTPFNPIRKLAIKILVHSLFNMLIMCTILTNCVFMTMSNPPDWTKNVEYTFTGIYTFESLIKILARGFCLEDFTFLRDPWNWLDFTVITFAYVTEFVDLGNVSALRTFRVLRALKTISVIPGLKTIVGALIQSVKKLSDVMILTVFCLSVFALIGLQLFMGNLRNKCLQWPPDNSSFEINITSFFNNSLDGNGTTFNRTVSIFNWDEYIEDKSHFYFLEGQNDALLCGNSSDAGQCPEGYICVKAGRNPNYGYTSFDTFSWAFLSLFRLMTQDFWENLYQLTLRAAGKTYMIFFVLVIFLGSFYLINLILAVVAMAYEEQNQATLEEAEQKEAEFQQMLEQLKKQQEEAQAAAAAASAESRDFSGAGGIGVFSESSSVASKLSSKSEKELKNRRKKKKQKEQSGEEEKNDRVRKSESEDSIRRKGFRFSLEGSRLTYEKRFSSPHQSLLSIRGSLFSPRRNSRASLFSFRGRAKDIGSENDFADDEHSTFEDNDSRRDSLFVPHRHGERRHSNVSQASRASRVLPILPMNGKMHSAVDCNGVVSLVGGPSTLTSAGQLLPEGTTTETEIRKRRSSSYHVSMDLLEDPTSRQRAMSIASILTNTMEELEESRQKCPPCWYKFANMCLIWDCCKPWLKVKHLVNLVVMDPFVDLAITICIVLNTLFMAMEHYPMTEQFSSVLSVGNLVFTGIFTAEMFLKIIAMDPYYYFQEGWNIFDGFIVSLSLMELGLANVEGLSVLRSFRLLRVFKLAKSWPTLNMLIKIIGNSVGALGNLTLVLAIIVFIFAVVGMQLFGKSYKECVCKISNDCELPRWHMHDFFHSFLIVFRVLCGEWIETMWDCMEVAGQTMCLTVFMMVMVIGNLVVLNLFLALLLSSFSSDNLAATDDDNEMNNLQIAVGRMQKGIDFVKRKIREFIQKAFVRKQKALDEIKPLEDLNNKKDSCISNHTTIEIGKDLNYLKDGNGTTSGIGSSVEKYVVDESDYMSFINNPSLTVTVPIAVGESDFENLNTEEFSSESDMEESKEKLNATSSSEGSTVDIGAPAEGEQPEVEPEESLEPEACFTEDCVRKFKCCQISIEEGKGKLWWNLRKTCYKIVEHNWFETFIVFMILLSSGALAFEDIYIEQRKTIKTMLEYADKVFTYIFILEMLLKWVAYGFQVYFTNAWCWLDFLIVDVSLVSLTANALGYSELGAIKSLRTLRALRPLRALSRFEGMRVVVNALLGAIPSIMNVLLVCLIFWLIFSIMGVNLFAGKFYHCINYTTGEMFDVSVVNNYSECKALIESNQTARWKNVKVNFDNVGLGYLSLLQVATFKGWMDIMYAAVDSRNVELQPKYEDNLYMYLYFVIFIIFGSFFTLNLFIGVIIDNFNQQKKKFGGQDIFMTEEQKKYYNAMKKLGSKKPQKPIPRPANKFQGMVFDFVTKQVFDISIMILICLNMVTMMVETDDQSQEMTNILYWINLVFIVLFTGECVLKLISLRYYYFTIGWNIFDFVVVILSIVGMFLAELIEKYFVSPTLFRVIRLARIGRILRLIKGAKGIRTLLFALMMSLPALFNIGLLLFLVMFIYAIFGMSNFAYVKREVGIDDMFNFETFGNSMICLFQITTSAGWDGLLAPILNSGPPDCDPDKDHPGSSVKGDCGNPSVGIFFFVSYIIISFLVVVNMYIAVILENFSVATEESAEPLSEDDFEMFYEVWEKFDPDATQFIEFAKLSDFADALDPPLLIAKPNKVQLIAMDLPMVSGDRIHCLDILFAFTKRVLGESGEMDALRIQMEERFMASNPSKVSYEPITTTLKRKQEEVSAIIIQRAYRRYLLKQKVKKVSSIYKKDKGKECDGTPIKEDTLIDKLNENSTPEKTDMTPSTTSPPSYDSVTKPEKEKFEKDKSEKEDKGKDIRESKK

[4] = molecular target: T1, Sodium channel protein type 2 subunit alpha; test: Ratio of IC50 for Nav1.2 (unknown origin) by cell based assay to IC50 for human Nav1.2 expressed in HEK293T cells assessed as inhibition of VTD-induced sustained current
Target sequence in this assay (Q99250 whole entry, looked up): as the sequence (Q99250 whole entry) above

Mus musculus = species: Mus musculus; test: Antagonist activity at VSSC in mouse Neuro2a cells assessed as inhibition of peak current at holding potential of -100mV at 100 nM by patch-clamp method; type: cell-based
[5] = molecular target: T1, Sodium channel protein type 2 subunit alpha; test: Antagonist activity at human Nav1.2 expressed in HEK293T cells assessed as inhibition of VTD-induced peak current up to 10 nM by whole cell patch clamp method relative to control; type: cell-based; settings: HEK-293T
Target sequence in this assay (Q99250 whole entry, looked up): as the sequence (Q99250 whole entry) above

[6] = molecular target: T1, Sodium channel protein type 2 subunit alpha; test: Ratio of IC50 for Nav1.2 (unknown origin) by cell based assay to IC50 for human Nav1.2 expressed in HEK293T cells assessed as inhibition of VTD-induced tail current
Target sequence in this assay (Q99250 whole entry, looked up): as the sequence (Q99250 whole entry) above

[7] = molecular target: Sodium channel protein type 8 subunit alpha (Homo sapiens) (UniProt Q9UQD0); settings: HEK-293T, 30 nM
Description: Antagonist activity at human Nav1.6 expressed in HEK293T cells assessed as inhibition of VTD-induced peak current at 30 nM by whole cell patch clamp method relative to control

[8] = molecular target: Sodium channel protein type 8 subunit alpha (Homo sapiens) (UniProt Q9UQD0); settings: HEK-293T, 30 nM; remark: listed apart in the source
Description: Antagonist activity at human Nav1.6 expressed in HEK293T cells assessed as inhibition of VTD-induced sustained current at 30 nM by whole cell patch clamp method relative to control

[9] = molecular target: Sodium channel protein type 8 subunit alpha (Homo sapiens) (UniProt Q9UQD0); settings: HEK-293T, 30 nM; remark: listed apart in the source
Description: Antagonist activity at human Nav1.6 expressed in HEK293T cells assessed as inhibition of VTD-induced tail current at 30 nM at holding potential of -100mV by whole cell patch clamp method relative to control

[10] = molecular target: Sodium channel protein type 9 subunit alpha (Homo sapiens) (UniProt Q15858); settings: HEK-293T, 30 nM
Chain of Sodium channel protein type 9 subunit alpha (Homo sapiens) (Q15858 whole entry, looked up): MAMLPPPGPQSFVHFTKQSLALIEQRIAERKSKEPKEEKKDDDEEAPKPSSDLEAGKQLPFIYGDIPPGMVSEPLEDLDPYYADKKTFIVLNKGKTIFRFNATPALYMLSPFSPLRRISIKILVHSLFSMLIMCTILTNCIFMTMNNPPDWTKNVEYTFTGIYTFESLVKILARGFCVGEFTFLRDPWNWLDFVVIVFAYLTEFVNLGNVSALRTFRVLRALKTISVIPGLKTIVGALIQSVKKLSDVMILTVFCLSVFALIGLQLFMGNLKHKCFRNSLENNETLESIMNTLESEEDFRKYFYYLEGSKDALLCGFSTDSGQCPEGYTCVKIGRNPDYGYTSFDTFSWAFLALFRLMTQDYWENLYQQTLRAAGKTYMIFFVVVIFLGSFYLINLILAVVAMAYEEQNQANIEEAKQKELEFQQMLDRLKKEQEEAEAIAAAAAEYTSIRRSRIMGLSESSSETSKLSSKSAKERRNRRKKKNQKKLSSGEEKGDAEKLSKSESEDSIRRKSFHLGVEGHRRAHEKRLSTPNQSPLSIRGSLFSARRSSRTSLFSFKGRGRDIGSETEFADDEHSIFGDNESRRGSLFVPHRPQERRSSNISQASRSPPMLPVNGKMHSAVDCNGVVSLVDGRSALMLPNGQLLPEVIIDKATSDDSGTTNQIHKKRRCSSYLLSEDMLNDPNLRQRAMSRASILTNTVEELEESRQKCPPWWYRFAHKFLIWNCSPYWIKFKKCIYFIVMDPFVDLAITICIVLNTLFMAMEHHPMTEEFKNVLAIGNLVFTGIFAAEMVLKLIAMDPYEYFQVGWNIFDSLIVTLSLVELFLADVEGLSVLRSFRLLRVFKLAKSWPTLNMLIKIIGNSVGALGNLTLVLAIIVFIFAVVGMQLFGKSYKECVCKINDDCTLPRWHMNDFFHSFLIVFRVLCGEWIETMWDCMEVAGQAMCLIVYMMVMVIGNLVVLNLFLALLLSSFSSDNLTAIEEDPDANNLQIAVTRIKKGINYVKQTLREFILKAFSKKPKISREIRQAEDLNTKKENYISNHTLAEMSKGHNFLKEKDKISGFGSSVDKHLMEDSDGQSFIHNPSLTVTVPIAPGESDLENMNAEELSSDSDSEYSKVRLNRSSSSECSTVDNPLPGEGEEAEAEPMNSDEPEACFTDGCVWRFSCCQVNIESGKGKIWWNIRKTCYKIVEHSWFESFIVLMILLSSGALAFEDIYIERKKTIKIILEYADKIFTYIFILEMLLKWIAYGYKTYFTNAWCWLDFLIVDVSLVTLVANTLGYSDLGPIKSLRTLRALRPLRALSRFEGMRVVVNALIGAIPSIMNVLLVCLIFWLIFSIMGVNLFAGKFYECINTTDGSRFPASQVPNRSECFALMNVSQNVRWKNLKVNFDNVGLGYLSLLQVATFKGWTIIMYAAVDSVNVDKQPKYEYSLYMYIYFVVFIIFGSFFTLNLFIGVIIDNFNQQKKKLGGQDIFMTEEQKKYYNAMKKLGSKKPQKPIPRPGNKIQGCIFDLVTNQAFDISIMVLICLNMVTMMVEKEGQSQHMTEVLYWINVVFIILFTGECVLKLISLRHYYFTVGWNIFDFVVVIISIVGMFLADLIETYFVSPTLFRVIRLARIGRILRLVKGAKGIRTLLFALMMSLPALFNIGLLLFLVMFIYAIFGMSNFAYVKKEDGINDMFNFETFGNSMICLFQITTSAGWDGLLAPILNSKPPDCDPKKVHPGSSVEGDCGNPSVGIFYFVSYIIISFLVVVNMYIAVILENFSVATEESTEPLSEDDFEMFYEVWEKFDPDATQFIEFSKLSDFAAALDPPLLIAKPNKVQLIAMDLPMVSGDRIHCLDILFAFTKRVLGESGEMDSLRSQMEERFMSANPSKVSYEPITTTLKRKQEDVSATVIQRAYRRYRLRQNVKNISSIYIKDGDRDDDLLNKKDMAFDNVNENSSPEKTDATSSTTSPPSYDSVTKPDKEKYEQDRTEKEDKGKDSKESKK
Description: Antagonist activity at human Nav1.7 expressed in HEK293T cells assessed as inhibition of VTD-induced peak current at 30 nM by whole cell patch clamp method relative to control

[11] = molecular target: Sodium channel protein type 9 subunit alpha (Homo sapiens) (UniProt Q15858); settings: HEK-293T, 30 nM; remark: listed apart in the source
Description: Antagonist activity at human Nav1.7 expressed in HEK293T cells assessed as inhibition of VTD-induced sustained current at 30 nM by whole cell patch clamp method relative to control

[12] = molecular target: Sodium channel protein type 9 subunit alpha (Homo sapiens) (UniProt Q15858); settings: HEK-293T, 30 nM; remark: listed apart in the source
Description: Antagonist activity at human Nav1.7 expressed in HEK293T cells assessed as inhibition of VTD-induced tail current at 30 nM at holding potential of -100mV by whole cell patch clamp method relative to control

[13] = molecular target: Sodium channel protein type 8 subunit alpha (Homo sapiens) (UniProt Q9UQD0); test: Antagonist activity at human Nav1.6 expressed in HEK293T cells assessed as inhibition of VTD-induced peak current at 1 uM by whole cell patch clamp method relative to control; type: cell-based; settings: HEK-293T
[14] = molecular target: Sodium channel protein type 8 subunit alpha (Homo sapiens) (UniProt Q9UQD0); test: Antagonist activity at human Nav1.6 expressed in HEK293T cells assessed as inhibition of VTD-induced sustained current at 1 uM by whole cell patch clamp method relative to control; type: cell-based; settings: HEK-293T
[15] = molecular target: Sodium channel protein type 8 subunit alpha (Homo sapiens) (UniProt Q9UQD0); test: Antagonist activity at human Nav1.6 expressed in HEK293T cells assessed as inhibition of VTD-induced tail current at 1 uM at holding potential of -100mV by whole cell patch clamp method relative to control; type: cell-based; settings: HEK-293T
[16] = molecular target: Sodium channel protein type 9 subunit alpha (Homo sapiens) (UniProt Q15858); test: Antagonist activity at human Nav1.7 expressed in HEK293T cells assessed as inhibition of VTD-induced peak current at 1 uM by whole cell patch clamp method relative to control; type: cell-based; settings: HEK-293T
[17] = molecular target: Sodium channel protein type 9 subunit alpha (Homo sapiens) (UniProt Q15858); test: Antagonist activity at human Nav1.7 expressed in HEK293T cells assessed as inhibition of VTD-induced sustained current at 1 uM by whole cell patch clamp method relative to control; type: cell-based; settings: HEK-293T
[18] = molecular target: Sodium channel protein type 9 subunit alpha (Homo sapiens) (UniProt Q15858); test: Antagonist activity at human Nav1.7 expressed in HEK293T cells assessed as inhibition of VTD-induced tail current at 1 uM at holding potential of -100mV by whole cell patch clamp method relative to control; type: cell-based; settings: HEK-293T

SMILES	IC50 [1] [nM]	inhibition [1]	IC50 [2] [nM]	inhibition [2]	EC50 [3] [nM]	inhibition (Mus musculus)	inhibition [5]	further results
CCCCCCCCCC[C@@H]1C[C@]2(CCCO2)NC(=N)N1	0.45	Dose-dependent effect	0.28	Dose-dependent effect	12	–	–	Ratio IC50 [4]: 43
CCCCCCCCCC[C@@H]1NC(=N)N[C@]2(CCCO2)[C@@H]1C(=O)O	7.5	Dose-dependent effect	35	Dose-dependent effect	79	inactive	Active	–
CCCCCCCCCC[C@H]1C[C@@]2(CCCO2)NC(=N)N1	2.1	Dose-dependent effect	2	Dose-dependent effect	120	–	Active	Ratio IC50 [6]: 60
NC1=N[C@H](O)[C@H]2[C@H]3O[C@]4(O)O[C@@H]([C@@H](O)[C@@]2(N1)[C@@H]4O)[C@]3(O)CO	–	–	–	–	–	Active	–	inhibition [7]: Active; inhibition [8]: Active; inhibition [9]: Active; inhibition [10]: Active; inhibition [11]: Active; inhibition [12]: Active
CCCCCCCCCCC1NC(=N)NC2(CCCO2)C1C(=O)O (racemic)	–	–	–	–	–	–	–	inhibition [13]: Active; inhibition [14]: Active; inhibition [15]: Active; inhibition [16]: Active; inhibition [17]: Active; inhibition [18]: Active
CCCCCCCCCC[C@H]1NC(=N)N[C@@]2(CCCO2)[C@H]1C(=O)O	26	Dose-dependent effect	170	Dose-dependent effect	5.3	inactive	Active	–
